What was measured:
K562 = experiment: Cell viability MTT assay, 96 h; assay type: cell-based; conditions: Homo sapiens
Description: (§1) Cells were seeded in 96-well plates and incubated with different concentrations of compound 13, 68 or other anticancer drugs for 96 h. Cell viability was quantitated by MTT assay. […] Table 4 is a comparison of the IC50 of compounds 13, 68 and other anticancer drugs in the K562 and doxorubicin-resistant K562/DOX cell lines.

K562/Dox [1] = experiment: Cell viability MTT assay, 96 h; assay type: cell-based; conditions: Homo sapiens, doxorubicin-resistant
Description: as §1

HEK293-MRP1 = experiment: Growth inhibition assay (96 h); assay type: cell-based, human; conditions: HEK293-MRP1 vs HEK293-pcDNA3.1
[2] = tested on: MRP1 (over-expressed in the cells); experiment: Growth inhibition assay (96 h); assay type: cell-based, human; conditions: human, HEK293 cells over-expressing MRP1 (HEK293-MRP1); HEK293-MRP1, MRP1 over-expressed, 96 h
MES-SA/DX5 = experiment: Growth inhibition assay (96 h); assay type: cell-based, human; conditions: for resistance factor (ratio of IC50 resistant subline to parental cell line): MES-SA/DX5 vs MES-SA (P-gp)
Excerpt: (§2) MTT (3-(4,5-dimethylthiazol-2-yl)-2,5-diphenyltetrazolium bromide) assay was also used for the leukemia cell lines. […] Cells were stained with SRB solution or MTT solution.

HEK293-pcDNA3.1 = experiment: Growth inhibition assay (96 h); assay type: cell-based, human; conditions: Homo sapiens, HEK293-pcDNA3.1 (control for MRP)
Excerpt: as §2

PC-3 = experiment: Growth inhibition assay (SRB, 96 h); assay type: cell-based, human; conditions: PC-3, 96 h
Excerpt: as §2

Bcl-2 = experiment: Western blot of Bcl-2 phosphorylation; assay type: cell-based, human; conditions: PC-3 cells, 24 h, immunoblot of pBcl-2
Description: Treated cells were lysed in cold lysis buffer (20 mM Tris-HCl, pH 7.5, 150 mM NaCl, 1 mM Na2 EDTA, 1% Triton x-100, and freshly added Na3VO4 (2 mM), NaF (20 mM) and complete protease inhibitor cocktail). For each sample, an aliquot (20 to 40 μg) of total protein was loaded and run on a SDS-Page gel. Protein was transferred to nitrocellulose membranes (Bio-Rad Laboratories, Hercules, Calif.), blocked with 5% non-fat milk, incubated with primary antibody overnight at 4° C., and then incubated with secondary antibody at rt for 1 h. ECL™ (GE Healthcare Bio-Sciences Corp., Piscataway, N.J.) was used for detection. The band intensity was measured by densitometry using TotalLab TL100 Software v2006 (Nonlinear Dynamics Ltd., Newcastle upon Tyne, UK).

HT-29 = experiment: Growth inhibition assay (SRB, 96 h); assay type: cell-based; conditions: Homo sapiens, HT-29, 96 h
Excerpt: as §2

TSU-Pr1 = experiment: Growth inhibition assay (SRB, 96 h); assay type: cell-based; conditions: Homo sapiens, TSU-Pr1, 96 h
Excerpt: as §2

MCF-7 = experiment: Growth inhibition assay (SRB, 96 h); assay type: cell-based; conditions: Homo sapiens, MCF7; MCF-7, 96 h
Excerpt: as §2

[3] = tested on: MRP2 (over-expressed in the cells); experiment: Growth inhibition assay (96 h); assay type: cell-based, human; conditions: human, HEK293 cells over-expressing MRP2 (HEK293-MRP2); HEK293-MRP2, MRP2 over-expressed, 96 h
HEK293-MRP2 = experiment: Growth inhibition assay (96 h); assay type: cell-based, human; conditions: HEK293-MRP2 vs HEK293-pcDNA3.1
K562/Dox [4] = experiment: Growth inhibition assay (MTT, 96 h); assay type: cell-based, human; conditions: for IC50: Homo sapiens, K562/Dox, P-gp over-expressed, 96 h; for resistance factor (ratio of IC50 resistant subline to parental cell line): K562/Dox vs K562 (P-gp)
Excerpt: as §2

PC-3 cells = experiment: Cell cycle analysis (PI staining, FACS); assay type: cell-based, human; conditions: for percentage of PC-3 cells in G2M phase: 24 h; for EC50: Homo sapiens, 0.1 nM to 1 μM, read-out: EC50 of cell cycle arrest in G2M phase; for EC50 / percentage of sub-G1 phase: PC-3, 24 h
Description: Cell cycle distribution was determined by propidium iodide (PI) staining. Treated cells were washed with PBS and fixed with 70% ice-cold ethanol overnight. Fixed cells were then stained with 20 μg/mL of PI in the presence of RNase A (300 μg/mL) at 37° C. for 30 min. Cell cycle distribution was analyzed by fluorescence-activated cell sorting (FACS).

[5] = tested on: human cancer cell lines from prostate, colon, breast, and bladder; experiment: Cell proliferation by SRB assay, panel of cell lines; assay type: cell-based; conditions: read-out: IC50 values, range over cell lines
Description: as §2
Cell proliferation was measured by SRB assay.

tubulin = tested on: T1, tubulin; experiment: In vitro tubulin polymerization assay; assay type: biochemical, bovine; conditions: cell free, turbidity 340 nm, 40 min; read-out: IC50 of microtubule formation (tubulin polymerization)
T1 construct: IC50 of microtubule formation (tubulin polymerization); other: cell free, turbidity 340 nm, 40 min
Description: Tubulin polymerization kits (Cytoskeleton, Denver, Colo.) were used to study tubulin depolymerization. The reaction contained 50 μL of 4 mg/mL tubulin in PEM buffer (80 mM PIPES, pH 7.0, 0.5 mM EGTA, 2 mM MgCl2, 1 mM GTP, 10% glycerol). The procedure was done according to the manufacturer's protocol. Tubulin polymerization was monitored in a UV spectrophotometer for 40 minutes at 340 nm at 37° C.

PC-12 cells = experiment: In vitro NGF-dependent neurite outgrowth; assay type: cell-based
Description: PC-12 cells were seeded in 6-well plates coated with poly-D-lysine (BD, Franklin Lakes, N.J.) (10000 cells/well). After 6 h, cells were pretreated for 3 days by adding 100 ng/mL murine 2.5S β-NGF (Promega, Madison, Wis.) to induce neuronal differentiation and neurite outgrowth. Differentiated cells were then treated for 24 h with compounds at various concentrations in the presence of NGF (100 ng/mL). Vinblastine and docetaxel were used as positive controls. After compound treatments, approximately 100 cells in each well were randomly chosen and the numbers of cells with no neurites, short neurites (<2×cell body), and long neurites (>2×cell body) were counted (n=3).

| SMILES | IC50 (K562) [nM] | IC50 (K562/Dox [1]) [nM] | resistance factor (ratio of IC50 resistant subline to parental cell line) (HEK293-MRP1) | IC50 at 96 h [2] [nM] | resistance factor (ratio of IC50 resistant subline to parental cell line) (MES-SA/DX5) | IC50 (HEK293-pcDNA3.1) [nM] | IC50 (PC-3; Homo sapiens) [nM] | concentration that induced phosphorylation (Ser70) of Bcl-2 (Bcl-2) [nM] | IC50 (HT-29) [nM] | IC50 (TSU-Pr1) [nM] | IC50 (MCF-7) [nM] | IC50 at 96 h [3] [nM] | resistance factor (ratio of IC50 resistant subline to parental cell line) (HEK293-MRP2) | IC50 (K562/Dox [4]) [nM] | resistance factor (ratio of IC50 resistant subline to parental cell line) (K562/Dox [4]) | EC50 (PC-3 cells) [nM] | IC50 [5] [nM] | IC50 (tubulin) [nM] | other results |
| --- | --- | --- | --- | --- | --- | --- | --- | --- | --- | --- | --- | --- | --- | --- | --- | --- | --- | --- | --- |
| O=C(c1cccc(-c2cc3ccccc3[nH]2)c1)c1cc2ccccc2[nH]1 [Compound 13, (1H-indol-2-yl)-[3-(1H-indol-2-yl)phenyl]methanone] | 63.6 ± 2.4 | 78.2 ± 2.9 |  |  |  |  |  |  |  |  |  |  |  |  |  |  |  |  |  |
| COc1cc(C(=O)c2cccc(-c3cc4ccccc4[nH]3)c2)cc(OC)c1OC [Compound 68, [3-(1H-Indol-2-yl)-phenyl]-(3,4,5-trimethoxy-phenyl)-methanone] | 23.6 ± 2.4 | 18 ± 4.4 | (1.3) | 30.4 ± 6.4 | (1.0) | 23.8 ± 1.7 | 28 | 50 | 15.1 ± 1.3 | 17.6 ± 2.1 | 39.2 ± 2.9 | 31.5 ± 8 | (1.3) | 18 ± 4.4 | (0.8) | 34 | 15.1 to 39.2 | 381 | IC50 (MES-SA/DX5; Homo sapiens, MES-SA/DX5, P-gp over-expressed, 96 h): 32.3 ± 8.2 nM; IC50 (PC-3): 28.2 ± 2 nM; percentage of PC-3 cells in G2M phase (PC-3 cells; 10 nM (control 19)): 24%; percentage of PC-3 cells in G2M phase (PC-3 cells; 50 nM (control 19)): 63%; percentage of PC-3 cells in G2M phase (PC-3 cells; 100 nM (control 19)): 77%; percentage of sub-G1 phase (PC-3 cells; 10 nM (control 0.2)): 0.5%; percentage of sub-G1 phase (PC-3 cells; 50 nM (control 0.2)): 0.7%; percentage of sub-G1 phase (PC-3 cells; 100 nM (control 0.2)): 1.3%; cells with neurites (PC-12 cells; PC12, 50 nM, 'a more toxic dose than IC50 value'): 60%; cells showing neurite elongation (PC-12 cells; PC12, NGF 100 ng/mL, 24 h, 50 nM (vehicle 88%)): 59% |
| CC[C@]1(O)C[C@@H]2CN(CCc3c([nH]c4ccccc34)[C@@](C(=O)OC)(c3cc4c(cc3OC)N(C)[C@H]3[C@@](O)(C(=O)OC)[C@H](OC(C)=O)[C@]5(CC)C=CCN6CC[C@]43[C@@H]65)C2)C1 [Vinblastine] | […] | […] | […] | […] | […] | […] | […] | […] | […] | […] | […] | 18.1 ± 4 | […] | […] | […] | 7 | 1.1 to 6.3 | […] | resistance factor (ratio of IC50 resistant subline to parental cell line) (HEK293-MRP1; listed as vinblastine): […]; resistance factor (ratio of IC50 resistant subline to parental cell line) (HEK293-MRP2; listed as vinblastine): […]; cells with long neurites (PC-12 cells; PC12, NGF 100 ng/mL, 24 h, 5 nM): 1.5%; cells with elongated neurites (PC-12 cells; PC12, NGF 100 ng/mL, 24 h, 5 nM (vehicle 88%)): Twenty-one |
